From ChEMBL document CHEMBL5331060, “Bisindole natural products: A vital source for the development of new anticancer drugs” (Eur J Med Chem, 2022)
≈ marks a conversion by molar mass, not a printed value. Values belong to the compound of their own block, whether it stands above or below them.

Experiments:
BXPC-3 = test: Antiproliferative activity against human BXPC-3 cells assessed as inhibition of cell growth incubated for 72 hrs by MTT assay; format: functional, cell-based; settings: BXPC-3, 72 h
PANC-1 = test: Antiproliferative activity against human PANC-1 cells assessed as inhibition of cell growth incubated for 72 hrs by MTT assay; format: functional, cell-based; settings: PANC-1, 72 h
MIA PaCa-2 = test: Antiproliferative activity against human MIA PaCa-2 cells assessed as inhibition of cell growth incubated for 72 hrs by MTT assay; format: functional, cell-based; settings: MIA PaCa-2, 72 h
ASPC1 = test: Antiproliferative activity against human ASPC1 cells assessed as inhibition of cell growth incubated for 72 hrs by MTT assay; format: functional, cell-based; settings: ASPC1, 72 h
MCF7 [1] = test: Antiproliferative activity against human MCF7 cells assessed as inhibition of cell growth; format: functional, cell-based
SMMC-7721 [2] = test: Antiproliferative activity against human SMMC-7721 cells assessed as inhibition of cell growth; format: functional, cell-based
A549 [3] = test: Antiproliferative activity against human A549 cells assessed as inhibition of cell growth; format: functional, cell-based
SW480 = test: Antiproliferative activity against human SW480 cells assessed as inhibition of cell growth; format: functional, cell-based
HCT-116 [4] = test: Cytotoxicity against human HCT-116 cells assessed as reduction in cell viability at 20 uM measured after 48 hrs by MTS assay relative to control; format: functional
A549 [5] = test: Antiproliferative activity against human A549 cells assessed as inhibition of cell growth incubated for 72 hrs by SRB assay; format: functional, cell-based; settings: A549, 72 h
MCF7 [6] = test: Antiproliferative activity against human MCF7 cells assessed as inhibition of cell growth incubated for 72 hrs by SRB assay; format: functional, cell-based; settings: MCF7, 72 h
A549 [7] = test: Antiproliferative activity against human A549 cells assessed as inhibition of cell growth incubated for 48 hrs by MTT assay; format: functional, cell-based; settings: A549, 48 h
K562 = test: Antiproliferative activity against human K562 cells assessed as inhibition of cell growth incubated for 48 hrs by MTT assay; format: functional, cell-based; settings: K562, 48 h
BT-549 = test: Antiproliferative activity against human BT-549 cells assessed as inhibition of cell growth incubated for 48 hrs by MTT assay; format: functional, cell-based; settings: BT-549, 48 h
PC-3 = test: Antiproliferative activity against human PC-3 cells assessed as inhibition of cell growth incubated for 48 hrs by MTT assay; format: functional, cell-based; settings: PC-3, 48 h
[8] = Antiproliferative activity against vincristine-resistant human KB cells assessed as inhibition of cell growth; format: functional, cell-based
KB = test: Antiproliferative activity against drug-sensitive human KB cells assessed as inhibition of cell growth; format: functional, cell-based
Jurkat = test: Antiproliferative activity against human Jurkat cells assessed as inhibition of cell growth; format: functional, cell-based
[9] = Antiproliferative activity against human MDA-MB cells assessed as inhibition of cell growth; format: functional, cell-based
HCT-8 = test: Antiproliferative activity against human HCT-8 cells assessed as inhibition of cell growth; format: functional, cell-based
4T1 = test: Antiproliferative activity against mouse 4T1 cells assessed as inhibition of cell growth incubated for 48 hrs by MTT assay; format: functional, cell-based; settings: 4T1, 48 h
MCF7 [10] = test: Antiproliferative activity against human MCF7 cells assessed as inhibition of cell growth incubated for 48 hrs by MTT assay; format: functional, cell-based; settings: MCF7, 48 h
HCT-116 [11] = test: Antiproliferative activity against human HCT-116 cells assessed as inhibition of cell growth; format: functional, cell-based
HL-60 = test: Antiproliferative activity against human HL-60 cells assessed as inhibition of cell growth; format: functional, cell-based
HepG2 [12] = test: Antiproliferative activity against human HepG2 cells assessed as inhibition of cell growth incubated for 48 hrs by MTS assay; format: functional, cell-based; settings: HepG2, 48 h
A549 [13] = test: Antiproliferative activity against human A549 cells assessed as inhibition of cell growth incubated for 48 hrs by MTS assay; format: functional, cell-based; settings: A549, 48 h
HeLa = test: Antiproliferative activity against human HeLa cells assessed as inhibition of cell growth incubated for 48 hrs by MTS assay; format: functional, cell-based
SMMC-7721 [14] = test: Antiproliferative activity against human SMMC-7721 cells assessed as inhibition of cell growth incubated for 48 hrs by MTS assay; format: functional, cell-based; settings: SMMC-7721, 48 h
AGS = test: Antiproliferative activity against human AGS cells assessed as inhibition of cell growth incubated for 24 hrs by MTT assay; format: functional, cell-based
HepG2 [15] = test: Antiproliferative activity against human HepG2 cells assessed as inhibition of cell growth incubated for 24 hrs by MTT assay; format: functional, cell-based; settings: HepG2, 24 h
[16] = Antiproliferative activity against human BC cells assessed as inhibition of cell growth incubated for 24 hrs by MTT assay; format: functional, cell-based
L1210 = test: Antiproliferative activity against mouse L1210 cells assessed as inhibition of cell growth incubated for 24 hrs by MTT assay; format: functional, cell-based; settings: L1210, 24 h
HT-29 = test: Antiproliferative activity against human HT-29 cells assessed as inhibition of cell growth; format: functional, cell-based

- IC50 (BXPC-3): 14 µM
- IC50 (PANC-1): 18 µM
- IC50 (MIA PaCa-2): 26 µM
- IC50 (ASPC1): 27 µM
SMILES: N=C(N)NCCSc1nc(-c2c[nH]c3cc(Br)ccc23)cnc1-c1c[nH]c2cc(Br)ccc12

SMILES: CC[C@@]12CC(C(=O)OC)=C3Nc4cc5c(cc4[C@@]34CCN(C[C@H]3O[C@H]31)[C@@H]24)[C@@H]1[C@H](O5)[C@@H](O)[C@@]2(CC)CC(C(=O)OC)=C3Nc4c(cc(O)c(OC)c4OC)[C@@]34CCN1[C@@H]24 [CONOPHYLLINE]
- IC50 (MCF7 [1]): 0.17 µM
- IC50 (SMMC-7721 [2]): 0.17 µM
- IC50 (A549 [3]): 0.17 µM
- IC50 (SW480): 0.17 µM

- IC50 (A549 [5]): 10.9 µM
- IC50 (MCF7 [6]): 10.9 µM
SMILES: CC[C@H]1CN(C)[C@H]2Cc3c([nH]c4ccccc34)[C@H](c3c(OC)ccc4c5c([nH]c34)[C@]3(C(=O)OC)C[C@@H]4C[C@H](CC)[C@@H]3N(CC5)C4)C[C@H]1[C@@H]2C(=O)OC
- Activity (HCT-116 [4]): 40%

- IC50 (A549 [7]): 11.4 µM
- IC50 (K562): 10.7 µM
- IC50 (BT-549): 0.89 µM
- IC50 (PC-3): 3.44 µM
SMILES: CC[C@]12C=C[C@H](C3=CC4CC(C(=O)OC)=C5Nc6cc(OC)ccc6[C@@]56CCN(C3)[C@@H]46)N3CC[C@]4(C(=C(C(=O)OC)C1)Nc1cc(OC)ccc14)[C@@H]32 (stereo not given in full)

- IC50 (KB): 3.2 µg/mL (≈ 4.03 µM)
- IC50 (Jurkat): 3.7 µg/mL (≈ 4.65 µM)
SMILES: C/C=C1/CN2CC[C@]34c5ccccc5N5[C@H](C(=O)OC)[C@H]1C[C@H]2[C@@]53Oc1c4cc2c(c1O)C(=O)O[C@@]13[C@@H]4C[C@H]5/C(=C\C)CN4CC[C@@]21c1ccccc1N3[C@@H]5C(=O)OC
- IC50 [8]: 2 µg/mL (≈ 2.52 µM)

- IC50 (A549 [5]): < 10 µM
- IC50 (MCF7 [6]): < 10 µM
SMILES: CC[C@@H]1CN(C)[C@H]2Cc3c([nH]c4ccccc34)[C@H](c3cc4c5c([nH]c4cc3OC)[C@@]3(C(=O)OC)C[C@H]4C[C@@H](CC)[C@@H]3N(CC5)[C@H]4CC(C)=O)C[C@H]1[C@@H]2C(=O)OC
- Activity (HCT-116 [4]): 70%

- IC50 (A549 [3]): 1 µg/mL
- IC50 (HCT-8): 1 µg/mL (≈ 1.71 µM)
SMILES: CN1C[C@H](c2c[nH]c3c(Br)c(Br)cc(O)c23)NC[C@H]1c1c[nH]c2cc(Br)ccc12
- IC50 [9]: 1 µg/mL (≈ 1.71 µM)

SMILES: C/C=C1/CN(C)[C@H]2Cc3c([nH]c4ccccc34)[C@H](c3cc4[nH]c5c(c4cc3OC)CCN3C[C@@H]4C[C@H](CC)[C@H]3[C@@]5(C(=O)OC)C4)C[C@@H]1C2C(=O)OC (stereo not given in full)
- IC50 (4T1): 1.42 µM
- IC50 (MCF7 [10]): 0.99 µM

- IC50 (MCF7 [1]): 3.8 µM
- IC50 (A549 [3]): 3.8 µM
- IC50 (HCT-116 [11]): 3.8 µM
- IC50 (HL-60): 3.8 µM
SMILES: C=C1[C@H]2C[C@@H]3N(CC[C@@]34c3cccc5c3N(C[C@H]3[C@H]6C[C@@H]7N(CC[C@@]78c7ccccc7N[C@@]538)C[C@H]6CC)[C@@H]14)C[C@H]2CC

- IC50 (HepG2 [12]): 7.02 µM
- IC50 (A549 [13]): 16.2 µM
- IC50 (HeLa): 4.4 µM
- IC50 (SMMC-7721 [14]): 4.31 µM
SMILES: CC[C@]12CCCn3c(Cc4cc5c6n4CCC[C@]6(CC)CCC(=O)Nc4ccccc4-5)cc(c31)-c1ccccc1NC(=O)CC2

- IC50 (AGS): 1.1 µg/mL (≈ 2.26 µM)
- IC50 (HepG2 [15]): 12.5 µg/mL (≈ 25.7 µM)
- IC50 (L1210): 1.1 µg/mL (≈ 2.26 µM)
SMILES: O=C1N[C@@H](c2c[nH]c3cc(Br)ccc23)CN=C1c1c[nH]c2cc(Br)ccc12 [HAMACANTHIN A]
- IC50 [16]: 10.7 µg/mL (≈ 22 µM)

- IC50 (A549 [3]): 0.00309 µM
- IC50 (HT-29): 0.00205 µM
SMILES: COC(=O)C1=CN2CCc3c([nH]c4ccccc34)[C@@H]2C[C@@H]1C1=CO[C@@H]([C@H]2[C@@H]3CCN4CC[C@@]5(C(=C3C(=O)OC)Nc3ccccc35)[C@@H]24)C[C@@H]1C
